Measurements as given in patent US9609868B2, “Alkoximino-substituted anthranilic acid diamides as pesticides” (BAYER CROPSCIENCE AKTIENGESELLSCHAFT, priority 2013, dated 2017).
Read-outs that look alike come from different tables or passages of the source.

Experiments:
[1] = log P by HPLC on reversed-phase column (C18), EEC directive 79/831 Annex V.A8; format: physicochemical; details: for log p: data refer to the E isomer
Experimental: The log P values reported in the tables and Preparation Examples above were determined in accordance with EEC directive 79/831 Annex V.A8 by HPLC (High Performance Liquid Chromatography) using a reversed-phase column (C18). Temperature 43° C. The calibration is effected with unbranched alkan-2-ones (having 3 to 16 carbon atoms), for which the log P values are known.

Spodoptera frugiperda = Spodoptera frugiperda - spray test (SPODFR); format: in vivo; details: application rate 100 g/ha, maize leaf disks
Experimental: Spodoptera frugiperda—Spray Test (SPODFR)
Solvent: 78.0 parts by weight of acetone • • 1.5 parts by weight of dimethylformamide
Emulsifier: 0.5 parts by weight of alkylaryl polyglycol ether
To produce a suitable active compound preparation, 1 part by weight of active compound is mixed with the stated amounts of solvent and emulsifier, and the concentrate is diluted with emulsifier-containing water to the desired concentration.
Leaf disks of maize (Zea mays) are sprayed with an active compound preparation of the desired concentration and, after drying, populated with caterpillars of the armyworm (Spodoptera frugiperda).
After the desired period of time, the efficacy in % is determined. 100% means that all the caterpillars have been killed; 0% means that no caterpillars have been killed.

[2] = reversed-phase HPLC column (C18), HPLC-MS data in the preparation text, HPLC reversed-phase C18, 43° C., read-out: log P
[3] = Table A, HPLC reversed-phase C18, 43° C.
[4] = Table C, HPLC reversed-phase C18, 43° C.

SMILES | chromatographic logP [1, 2] | efficacy (caterpillars killed) (Spodoptera frugiperda) [%] | also measured
CON=Cc1cc(C)c(NC(=O)c2cc(OC(C)C)nn2-c2ncccc2Cl)c(C(=O)NC2COC2)c1 (mixture of isomers) [B-07] |  | 100 | log p ([1]; Table B, HPLC reversed-phase C18, 43° C.): 2.57
O=C(O)c1cc(CF)nn1-c1ncccc1Cl [1-(3-Chloropyridin-2-yl)-3-(fluoromethyl)-1H-pyrazole-5-carboxylic acid] | 1.03 |  | 
O=C(O)c1cc(OCc2ccc(C(F)(F)F)nc2)nn1-c1ncccc1Cl [1-(3-chloropyridin-2-yl)-3-{[6-(trifluoromethyl)pyridin-3-yl]methoxy}-1H-pyrazole-5-carboxylic acid] | 1.59 |  | 
CON=Cc1cc(C)c(NC(=O)c2cc(C(F)(F)F)nn2-c2ncccc2Cl)c(C(=O)N(C)NC(C)=O)c1 [A-30] |  | 100 | log p [1, 3]: 2.75
CCOC(=O)NN(C)C(=O)c1cc(C=NOC)cc(C)c1NC(=O)c1cc(C(F)(F)F)nn1-c1ncccc1Cl [A-24] |  | 100 | log p [1, 3]: 3.31
CON=Cc1cc(C)c(NC(=O)c2cc(Br)nn2-c2ncccc2Cl)c(C(=O)N(C)NC(=O)OC(C)C)c1 [A-16] |  | 100 | log p [1, 3]: 3.28
C=CCOC(=O)NN(C)C(=O)c1cc(C=NOC)cc(C)c1NC(=O)c1cc(Br)nn1-c1ncccc1Cl [A-07] |  | 100 | log p [1, 3]: 3.12
CCOC(=O)c1cc(OCC(F)F)nn1-c1ncccc1Cl [Ethyl 1-(3-chloropyridin-2-yl)-3-(2,2-difluoroethoxy)-1H-pyrazole-5-carboxylate] | 2.74 |  | 
CON=Cc1cc(C)c(NC(=O)c2cc(CF)nn2-c2ncccc2Cl)c(C(=O)N(C)C)c1 [C-55] |  | 100 | log p [1, 4]: 2.19
CON=Cc1cc(C)c2nc(-c3cc(OC(F)F)nn3-c3ncccc3Cl)oc(=O)c2c1 [2-[1-(3-Chloropyridin-2-yl)-3-(difluoromethoxy)-1H-pyrazol-5-yl]-8-methyl-4-oxo-4H-3,1-benzoxazine-6-carbaldehyde O-methyl oxime] | 3.93 |  | 
COCCOC(=O)NN(C)C(=O)c1cc(C=NOC)cc(C)c1NC(=O)c1cc(C(F)(F)F)nn1-c1ncccc1Cl [A-27] |  | 100 | log p [1, 3]: 3.05
CO/N=C/c1cc(C)c(NC(=O)c2cc(OC(F)F)nn2-c2ncccc2Cl)c(C(=O)NN)c1 [1-(3-Chloropyridin-2-yl)-3-(difluoromethoxy)-N-{2-(hydrazinocarbonyl)-4-[(E)-(methoxyimino)methyl]-6-methylphenyl}-1H-pyrazole-5-carboxamide] |  |  | chromatographic logP ([1]; log P): 2.12
O=C(O)c1cc(OCC(F)F)nn1-c1ncccc1Cl [1-(3-Chloropyridin-2-yl)-3-(2,2-difluoroethoxy)-1H-pyrazole-5-carboxylic acid] | 1.59 |  | 
CC(C)Oc1cc(C(=O)O)n(-c2ncccc2Cl)n1 [1-(3-chloropyridin-2-yl)-3-isopropoxy-1H-pyrazole-5-carboxylic acid] | 1.76 |  | 
CON=Cc1cc(C)c2nc(-c3cc(OCC(F)F)nn3-c3ncccc3Cl)oc(=O)c2c1 [2-[1-(3-Chloropyridin-2-yl)-3-(2,2-difluoroethoxy)-1H-pyrazol-5-yl]-8-methyl-4-oxo-4H-3,1-benzoxazine-6-carbaldehyde O-methyl oxime] | 3.92 |  | 
CON=Cc1cc(C)c(NC(=O)c2cc(OC)nn2-c2ncccc2Cl)c(C(=O)N(C)C)c1 [C-40] |  |  | log p [1, 4]: 2.16
CCOc1cc(C(=O)O)n(-c2ncccc2Cl)n1 [1-(3-chloropyridin-2-yl)-3-ethoxy-1H-pyrazole-5-carboxylic acid] | 1.47 |  | 
COC(=O)c1cc(CF)nn1-c1ncccc1Cl [Methyl 1-(3-chloropyridin-2-yl)-3-(fluoromethyl)-1H-pyrazole-5-carboxylate] | 1.9 |  | 

The next lines start with results.

chromatographic logP [1, 2] | SMILES | efficacy (caterpillars killed) (Spodoptera frugiperda) [%] | also measured
1.73 | CO/N=C/c1cc(C)c(N)c(C(=O)O)c1 [VIII-1, 2-Amino-5-[(E)-(methoxyimino)methyl]-3-methylbenzoic acid] |  | 
1.02 | Cc1cc(C=O)cc(C(=O)O)c1N [IX-1, 2-Amino-5-formyl-3-methylbenzoic acid] |  | 
